Measured values taken from patent US20140051701A1, “METHODS OF TREATING A DISEASE OR CONDITION OF THE CENTRAL NERVOUS SYSTEM” (Bionomics Limited, priority 2011, published 2014).
Entries after “also recorded” stand apart in the source; their conditions may differ.

Key:
[1] = system: rat primary cortical neurons; test: Neurite outgrowth assay in cortical neuron culture; assay type: cell-based; conditions: for minimal effective concentration: Rattus norvegicus, Primary cortical neuron, 72 h, 3 days exposure of cortical neurons, read-out: concentration giving significant neurite outgrowth; for effect on neurite outgrowth, substance alone: primary cortical neurons; for block of Compound 1-induced enhancement of neurite outgrowth by PLC inhibitor: inhibitor in combination with Compound 1
Experimental: Female rats of 17 days gestation were killed by cervical dislocation and the foetuses were removed from the uterus. Their brains were placed in ice-cold medium of Leibovitz (L15, Gibco, Fisher bioblock, France). Cortex were dissected and meninges were carefully removed. The cortical neurons were dissociated by trypsinization for 30 min at 37° C. (trypsin-EDTA Gibco) in presence of 0.1 mg/ml DNAse I (Roche, France). The reaction was stopped by addition of in medium of Eagle modified by Dulbecco (DMEM; Gibco) with 10% of fetal bovine serum (FBS; Gibco). The suspension was triturated with a 10-ml pipette and using a needle syringe 21G and centrifuged at 350×g for 10 min at room temperature. The pellet of dissociated cells was resuspended in a medium consisting of Neurobasal (Gibco) supplemented with 2% B27 supplement (Gibco), 0.5 mM L-Glutamine (Gibco), an antibiotic-antimicotic mixture. Viable cells were counted in a Neubauer cytometer using the trypan blue exclusion test (Sigma). Cells were seeded on the basis of 30000 cells per Petri dish (ø35 mm, Nunc) precoated with poly-L-lysine.
Cells were allowed to adhere 2 h and maintained in a humidified incubator at 37° C. in 5% CO2-95% air atmosphere.
After neuronal adhesion (2 h after the plating), cultures were exposed to Compound 1 or BDNF for a period of 3 days.
After the 3 days exposure of the neurons to the test compounds, cultures were washed with phosphate-buffered saline (PBS, Gibco) and fixed using 2.5% glutaraldehyde in PBS. Several pictures (˜80) of neurons with neurites without any branching were taken per condition using a digital camera (Coolpix 995; Nikon) mounted on the microscope (Nikon, objective 40×). Neurites were outlined on computer screen using imaging software (Image-Pro Plus, France), which automatically calculates the length.
A global analysis of the data was performed using a one way analysis of variance (ANOVA), followed by Fisher's Protected Least Significant Difference when applicable. The level of significance was set to p<0.05. All results were expressed as mean±sem. N=˜180 cells
The compound of example 1h was tested at 0.1 nM, 1 nM, 10 nM, 100 nM and 1000 nM on two independent cultures comprising 2 Petri dishes per culture and per condition. In parallel, BDNF was tested at 50 ng/ml.

[2] = system: mouse; test: Mouse light dark box model; assay type: in vivo
Experimental: U73122 was then examined for an in vivo effect on the activity of Example 1 in the mouse light dark box. U73122 was given IP at 30 mg/kg, 120 minutes prior to testing. Compound 1 was dosed orally at 10 mg/kg, 60 minutes prior to testing. […] This experiment was repeated using the anxiolytic compound diazepam to determine whether the activity of U73122 was specific to Compound 1 (FIG. 5).

[3] = Non-precipitated withdrawal (physical dependence) after 14-day dosing; assay type: in vivo, rat; conditions: 14 days at 10, 30 and 100 mg/kg/day; 5 days post-treatment; versus no-drug group; listed as Compound 1
Text: Sudden discontinuation of antidepressant medication may produce withdrawal effects caused by physical dependence on the drug. Compounds can be evaluated for physical dependence in a simple animal model where, following a period of chronic dosing (e.g., for 14-20 days), the study drug is stopped and measurements of food intake, body weight and body temperature are taken over the next 5 days. […] This model is suitable for detecting the effects across a broad range of drug classes including opiates, antidepressants and benzodiazepines. […]
Rats treated chronically (14-20 days) with opioids, benzodiazepines Or SSRIs display adverse physical effects after non-precipitated withdrawal of the drugs. The potential consequences of abrupt cessation of dosing with Compound 1 was assessed following 14 days of treatment at 0, 10, 30 and 100 mg/kg/day.

## CCOC(=O)c1cn(CC)c2ncc(N)cc2c1=O [Example 1f, Ethyl 1-ethyl-1,4-dihydro-6-amino-4-oxo-1,8-naphthyridine-3-carboxylate]
[1]
  minimal effective concentration: < 0.1 µM

## CCOC(=O)c1cn(CC)c2ncc(NC3Cc4ccccc4C3)cc2c1=O [Example 1g, Ethyl 6-(2,3-dihydro-1H-inden-2-ylamino)-1-ethyl-1,4-dihydro-4-oxo-1,8-naphthyridine-3-carboxylate]
[1]
  minimal effective concentration: < 0.1 µM

## CCn1cc(C(=O)N2CCOCC2)c(=O)c2cc(NC3Cc4ccccc4C3)cnc21 [Example 1h]
[1]
  minimal effective concentration: < 0.1 µM
  effect on neurite outgrowth, substance alone: enhancement of neurite outgrowth
[2]; 10 mg/kg orally, 60 minutes prior to testing
  anxiolytic activity: robust anxiolytic activity
[3]
  changes in body temperature, weight gain or food consumption after withdrawal: does not produce signs of withdrawal; also recorded: did not produce significant changes

## CCn1cc(C(=O)N2CCN(C)CC2)c(=O)c2cc(NC3Cc4ccccc4C3)cnc21 [Example 2, Methylpiperazino 6-(2,3-dihydro-1H-inden-2-ylamino)-1-ethyl-1,4-dihydro-4-oxo-1,8-naphthyridine-3-carboxamide]
[1]
  minimal effective concentration: < 0.1 µM

## CCn1cc(C(=O)NC2CC2)c(=O)c2cc(NC3Cc4ccccc4C3)cnc21 [Example 3, Cyclopropylamino 6-(2,3-dihydro-1H-inden-2-ylamino)-1-ethyl-1,4-dihydro-4-oxo-1,8-naphthyridine-3-carboxamide]
[1]
  minimal effective concentration: < 0.1 µM

## CCn1cc(C(=O)N2CCOCC2)c(=O)c2cc(N)cnc21 [Example 4, Morpholino 6-amino-1-ethyl-1,4-dihydro-4-oxo-1,8-naphthyridine-3-carboxamide]
[1]
  minimal effective concentration: < 0.1 µM

## CCn1cc(C(=O)Nc2ccc(F)cc2)c(=O)c2cc(NC3Cc4ccccc4C3)cnc21 [Example 5, 4-fluorophenylamine 6-(2,3-dihydro-1H-inden-2-ylamino)-1-ethyl-1,4-dihydro-4-oxo-1,8-naphthyridine-3-carboxamide]
[1]
  minimal effective concentration: < 0.1 µM

## CCn1cc(C(=O)Nc2ccc(-c3ccccc3)cc2)c(=O)c2cc(NC3Cc4ccccc4C3)cnc21 [Example 6, 4-biphenylamino-6-(2,3-dihydro-1H-inden-2-ylamino)-1-ethyl-1,4-dihydro-4-oxo-1,8-naphthyridine-3-carboxamide]
[1]
  minimal effective concentration: < 0.1 µM

## CCOC(=O)c1cn(CC)c2ncc(NC(=O)C(C)C)cc2c1=O [Example 7, Ethyl 6-(isobutyrylamide)-1-ethyl-1,4-dihydro-4-oxo-1,8-naphthyridine-3-carboxylate]
[1]
  minimal effective concentration: < 0.1 µM

## S=C([S-])OC1CC2CC1C1CCCC21.[K+] (centres unmarked) [Example D609, reference compound]
[1]
  block of Compound 1-induced enhancement of neurite outgrowth by PLC inhibitor: blocked; also recorded: significant and dose-dependant reduction
  effect on neurite outgrowth, substance alone: enhanced neurite outgrowth

## COc1ccc2c(c1)CC[C@@H]1[C@@H]2CC[C@]2(C)[C@@H](NCCCCCCN3C(=O)C=CC3=O)CC[C@@H]12 [Example U73122, reference compound]
[1]; U73122 at 1 μM, Compound 1 10 nM
  block of Compound 1 activity on neurite outgrowth: significant block
[1]; U73122 tested over 30 nM to 1 μM with Compound 1 10 nM
  concentration at which full block of Compound 1 activity occurs: 100 nM
[1]
  block of Compound 1-induced enhancement of neurite outgrowth by PLC inhibitor: blocked; also recorded: dose-related block
[2]; U73122 30 mg/kg IP in combination with 10 mg/kg p.o. Compound 1
  effect on anxiolytic activity of Compound 1: blocks; also recorded: fully blocked the anxiolytic effect
[2]; U73122 30 mg/kg IP, 120 minutes prior to testing
  effect on the Time, Entries or Distance parameters, alone: did not have any effect
[2]; U73122 30 mg/kg i.p. with diazepam 1 mg/kg p.o.
  effect on the animals' responses to diazepam: did not cause any change
